The test system of data set [1] is Human bronchial epithelial (16HBE) cells. Put plainly: HOSCN reductase activity. The note with it: human 16HBE cells.
For data set [2], the system named is P. aeruginosa: AMT0027L. In words: HOSCN reductase activity.
The test system of a further data set is P. aeruginosa: PAO1. In words: HOSCN reductase activity.
The target of data set [3] is recombinant E. coli Cys-TrxR (Escherichia coli, UniProt P0A9P4). Put plainly: Kinetic analysis of HOSCN metabolism and inhibition. Type of data set: biochemical. The text has this: FIGS. 3A-3B. Kinetic analysis of HOSCN metabolism by recombinant mouse Sec-TrxR and recombinant E. coli Cys-TrxR. […] Sec-TrxR forms that lack a selenocysteine (Sec489Cys) or truncated by the last 8 amino acids (D8) had diminished activity.
recombinant E. coli Cys-TrxR, sequence (P0A9P4 whole entry, the tested form may be a part): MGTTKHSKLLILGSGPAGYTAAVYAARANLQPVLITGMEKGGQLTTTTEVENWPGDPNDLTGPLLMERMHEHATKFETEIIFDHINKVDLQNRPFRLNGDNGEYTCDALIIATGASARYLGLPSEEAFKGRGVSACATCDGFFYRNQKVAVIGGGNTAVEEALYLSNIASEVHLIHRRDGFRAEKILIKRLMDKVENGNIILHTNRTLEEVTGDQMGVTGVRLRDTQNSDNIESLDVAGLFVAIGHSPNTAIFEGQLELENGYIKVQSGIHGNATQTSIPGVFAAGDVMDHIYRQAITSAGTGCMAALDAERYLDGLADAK

The next data set has as its system B. dolsa. Put plainly: Bacterial sensitivity towards HOSCN killing. The note with it: CF sputum isolate, HOSCN flux for 2 hours, GOX/LPO/SCN system, pH 7.4. Type of data set: cell-based, Burkholderia cepacia complex (BCC). As to the method:
(§1) FIGS. 11A-11D. […] A lactoperoxidase (LPO) system was used to generate increasing fluxes of either HOSCN or HOSeCN in presence of 400 μM of either ^−SCN or ^−SeCN. LPO in the presence of a hydrogen peroxide generating system (glucose oxidase, GOX) can convert both thiocyanate and selenocyante to their respective hypopseudohalous acid species (HOSCN and HOSeCN) that are biocides. […] Bacterial inoculums (10^6 colony forming units, CFU) were incubated with host defense system for 2 hours at room temperature and bacteria were plated on LB agar plates and cell viability was determined by dilution and counting CFUs.
(§2) LPO in the presence of a hydrogen peroxide generating system (glucose oxidase, GOX) can convert both thiocyanate and selenocyante to their respective hypopseudohalous acid species (HOSCN and HOSeCN) that are biocides. […] Bacterial inoculums (10^6 colony forming units, CFU) were incubated with host defense system for 2 hours at room temperature and bacteria were plated on LB agar plates and cell viability was determined by dilution and counting CFUs. Lethal concentrations that kill 50% of bacteria (LC50) were determined by non-linear curve fitting the data.
(§3) Bacteria were incubated for 2 hour with LPO, ^−SCN or SeCN, glucose and increasing amounts of GOX. The flux (HOX) of either HOSCN or HOSeCN was determined from standard curves of GOX/LPO and either HOSCN or HOSeCN. LC50 values were determined by curve fitting the data with nonlinear regression of log (agonist) vs normalized response.

In another data set the test system is B. vietnameisis. In words: Bacterial sensitivity towards HOSCN killing. The note with it: HOSCN flux for 2 hours, GOX/LPO/SCN system, pH 7.4. Type of data set: cell-based, Burkholderia cepacia complex (BCC). On the procedure: as §1, §2, §3
In a further data set the test system is B. cenocepacia. Put plainly: Bacterial sensitivity towards HOSCN killing. Type of data set: cell-based, Burkholderia cepacia complex (BCC). The note with it: CF sputum isolate, HOSCN flux for 2 hours, GOX/LPO/SCN system, pH 7.4. As to the method:
as §1, §2, §3

Another data set concerns B. multivorans 41. In words: Bacterial sensitivity towards HOSCN killing. The following applies: B. multivorans 41, CF sputum isolate; HOSCN flux for 2 hours, GOX/LPO/SCN system, pH 7.4. Type of data set: cell-based, Burkholderia cepacia complex (BCC). On the procedure: as §1, §2, §3
Data set [4] can be described thus: Viability after HOSCN exposure. The note with it: human, human bronchial epithelial (16HBE) cells.
The subject of data set [5] is P. aeruginosa: AMT0294L. In words: HOSCN reductase activity.
The next data set concerns P. aeruginosa: AMT0009L. In words: Viability after HOSCN exposure. The following applies: late disease antibiotic-resistant CF isolate.
For another data set, the system named is MRSA 43. In words: Bacterial sensitivity towards HOSCN killing. Type of data set: cell-based, methicillin-resistant Staphylococcus aureus (MRSA). The note with it: MRSA 43, CF sputum isolate; HOSCN flux for 2 hours, GOX/LPO/SCN system, pH 7.4. On the procedure:
as §1, §2, §3

The next data set relates to MRSA 45. Put plainly: Bacterial sensitivity towards HOSCN killing. Type of data set: cell-based, methicillin-resistant Staphylococcus aureus (MRSA). The note with it: MRSA 45, CF sputum isolate; HOSCN flux for 2 hours, GOX/LPO/SCN system, pH 7.4. As to the method:
as §1, §2, §3

In another data set the test system is MRSA 46. Put plainly: Bacterial sensitivity towards HOSCN killing. The note with it: MRSA 46, CF sputum isolate; HOSCN flux for 2 hours, GOX/LPO/SCN system, pH 7.4. Type of data set: cell-based, methicillin-resistant Staphylococcus aureus (MRSA). As to the method: as §1, §2, §3
Another data set concerns MRSA 44. In words: Bacterial sensitivity towards HOSCN killing. The note with it: MRSA 44, CF sputum isolate; HOSCN flux for 2 hours, GOX/LPO/SCN system, pH 7.4. Type of data set: cell-based, methicillin-resistant Staphylococcus aureus (MRSA). On the procedure:
as §1, §2, §3

Data set [6] concerns the target Sec-containing TrxR2 (Sec-TrxR2) (Mus musculus, UniProt Q9JLT4). Put plainly: Inactivation of TrxR by oxidants. Type of data set: biochemical. As to the method:
(§4) Based on data, it is expected that Sec-TrxR1 is able to metabolize both HOSCN and HOSeCN but not HOCl, and that Cys-TrxR's is unable to metabolize these oxidants. The active site Cys or Sec residue of each respective enzyme is oxidized to either Cys-SO2^− or Sec-SeO2^−. The Cys-TrxR cannot recover from this oxidation while the Sec-TrxR can. To test this, an inactivation assay is performed followed by structural analysis of the protein by MS. In the inactivation assay, (i) enzymes are reduced with NADPH, (ii) the enzymes are treated with oxidant followed by desalting to remove oxidant, and (iii) the enzyme is assayed for activity. […] The proteins are proteolyzed followed by LC-MS analyses. The LC-MS profiles are compared to control samples not treated with oxidant. This determines the exact mechanism of inactivation for each enzyme. […] This would explain why HOCl is highly inflammatory (nonspecific oxidation), and why HOSCN is used as a bactericide because it can rapidly inactivate proteins/enzyme by oxidation of sulfur amino acids (Cys, Met), but can be metabolized by the host cell by Sec-TrxR.

The target of another data set is DmTrxR (containing Cys) (Drosophila melanogaster, UniProt P91938). Put plainly: Inactivation of TrxR by oxidants. Type of data set: biochemical. On the procedure:
as §4

Another data set deals with E. coli: AB1157. Put plainly: Viability after HOSCN exposure.
Data set [7] concerns P. aeruginosa: AMT0027L. In words: Viability after HOSCN exposure. The following applies: late disease antibiotic-resistant CF isolate.
Another data set concerns P. aeruginosa: AMT0145L. Put plainly: HOSCN reductase activity.
The test system of data set [8] is P. aeruginosa: AMT0294L. In words: Viability after HOSCN exposure. The note with it: late disease antibiotic-resistant CF isolate.

DmTrxR (containing Cys), sequence (P91938 112-596 limits assumed): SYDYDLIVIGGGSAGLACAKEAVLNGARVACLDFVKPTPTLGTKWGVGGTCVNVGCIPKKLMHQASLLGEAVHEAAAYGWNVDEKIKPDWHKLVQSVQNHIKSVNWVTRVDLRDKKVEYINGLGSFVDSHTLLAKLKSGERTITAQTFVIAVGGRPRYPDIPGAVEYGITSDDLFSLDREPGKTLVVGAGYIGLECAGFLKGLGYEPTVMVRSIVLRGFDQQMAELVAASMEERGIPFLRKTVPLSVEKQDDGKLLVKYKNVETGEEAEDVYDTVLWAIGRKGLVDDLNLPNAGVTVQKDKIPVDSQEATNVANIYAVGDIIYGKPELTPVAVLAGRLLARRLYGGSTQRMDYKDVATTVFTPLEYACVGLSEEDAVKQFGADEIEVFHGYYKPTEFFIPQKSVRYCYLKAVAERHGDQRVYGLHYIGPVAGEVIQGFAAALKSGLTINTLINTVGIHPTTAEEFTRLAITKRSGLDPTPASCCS
Sec-containing TrxR2 (Sec-TrxR2), sequence (Q9JLT4 35-524): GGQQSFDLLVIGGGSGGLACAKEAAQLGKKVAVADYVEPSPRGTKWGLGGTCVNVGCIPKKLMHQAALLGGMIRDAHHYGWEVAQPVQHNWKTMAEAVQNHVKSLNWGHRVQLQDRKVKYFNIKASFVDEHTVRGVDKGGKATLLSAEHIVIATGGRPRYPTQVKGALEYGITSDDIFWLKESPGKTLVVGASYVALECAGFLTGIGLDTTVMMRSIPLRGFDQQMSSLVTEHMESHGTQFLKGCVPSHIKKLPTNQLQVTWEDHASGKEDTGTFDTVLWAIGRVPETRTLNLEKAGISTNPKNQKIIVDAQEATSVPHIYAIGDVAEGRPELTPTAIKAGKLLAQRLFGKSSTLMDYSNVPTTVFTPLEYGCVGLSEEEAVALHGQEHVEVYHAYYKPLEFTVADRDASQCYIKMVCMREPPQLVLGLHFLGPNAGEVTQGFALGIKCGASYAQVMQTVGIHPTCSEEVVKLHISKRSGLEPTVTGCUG

In general, IC50 refers to the concentration that gives 50% inhibition. A word on the viability: it is a read-out of living cells in per cent, often relative to untreated cells. `N#CSO` [HOSCN, hypothiocyanite]: the “Apparent Vmax (HOSCN reductase activity)” value was 14.7 ± 1.0 nmol/mg/min in data set [1]; “ND^c (No activity detected. Limit of detection = 0.5 nmol mg^−1 min^−1)” with P. aeruginosa: AMT0027L [2]; “ND^c (No activity detected. Limit of detection = 0.5 nmol mg^−1 min^−1)” in the data set with P. aeruginosa: PAO1; “ND^c (No activity detected. Limit of detection = 0.5 nmol mg^−1 min^−1)” with P. aeruginosa: AMT0294L [5]; 1.4 ± 0.1 nmol/mg/min with P. aeruginosa: AMT0145L. In data set [3], the IC50 is 2750 nM. Besides, the HOSCN metabolism activity result in data set [3] (similar conditions) is listed as “no measurable activity”. Besides, the “HOSCN IC50” value with B. dolsa was 79 µM/h; in the data set with B. vietnameisis, 64 µM/h; with B. cenocepacia it was 59 µM/h; in the data set on B. multivorans 41, 18 µM/h; in the data set on MRSA 43, 450 µM/h; in the data set on MRSA 45, 24 µM/h. In addition, the “HOSCN IC50” value with MRSA 46 was found to be 10 µM/h; in the data set on MRSA 44, 260 µM/h. Besides, in data set [4], the viability was found to be 96.3 ± 1.6%. The “Viability (%)” value came out at 4.2 ± 2.1% in the data set on P. aeruginosa: AMT0009L, 0% in the data set on E. coli: AB1157, 0% in the data set on P. aeruginosa: AMT0027L [7] and 0% with P. aeruginosa: AMT0294L [8]. For the same compound, the “Inactivation of Sec-TrxR2 by oxidant” value in data set [6] is recorded as “resists inactivation”. Moreover, the “Inactivation of DmTrxR by oxidant” value on DmTrxR (containing Cys) is “is inactivated”.

Source of the values: patent US11986450B2, “Methods and compositions for treating infection and inflammation with selenocyanate” (National Jewish Health, priority 2017, dated 2024).
